# Results as given in publication PMC10967822, “Antimicrobial Indole-3-Carboxamido-Polyamine Conjugates Target Bacterial Membranes and Are Antibiotic Potentiators” (Biomolecules, 2024).
# Several values for one entry are separate records, joined by “and”; a condition that tells them apart may be missing. Identical values can stand only once. Like-named read-outs stand apart in the source and are kept apart here. Marks after values point to notes of the source that are not given here.
# Key:
# E. coli ATCC 25922 [1] = assay: MIC, broth dilution, E. coli; assay type: cell-based, Escherichia coli; details: Escherichia coli, ATCC25922; E. coli ATCC 25922, 18 h
# C. albicans ATCC 90028 [2] = assay: Antifungal MIC (CO-ADD), C. albicans; assay type: cell-based; details: Candida albicans, ATCC90028, top dose 32 µg/mL
# Method in brief: (§1)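 Yeast inocula prepared from YPD-agar colonies grown 3 days at 30 °C, diluted in YNB broth to 2.5 × 10^3 CFU/mL and incubated 36 h at 35 °C without shaking. C. albicans MIC read at OD530; C. neoformans MIC read at OD570–600 after 3 h with 0.006% resazurin.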
# MRSA = assay: ATP efflux (membrane disruption), MRSA; assay type: cell-based, methicillin-resistant S. aureus; details: single dose 100 µg/mL, relative to squalamine
# Method: (§2) A solution of the compound was prepared in twice-distilled water at a fixed concentration of 100 μg/mL. The different Gram-positive suspensions were prepared in MH II broth and were incubated at 37 °C. Then, 90 µL of each bacterial suspension was added to 10 µL of the compound solution and shaken for 20 s in the incubator at 37 °C. Subsequently, 50 µL of Luceferin–Luciferase reagent (Yelen, Marseille, France) was added to the mixture, and the luminescent signal was quantified with an Infinite M200 microplate reader (Tecan, Männedorf, Switzerland) for 6 readings spaced 30 s apart. The ATP concentration was quantified by internal sample addition. Squalamine (100 µg/mL) was used as the positive control to quantify the maximum level of ATP efflux and water as the negative control. This assay was performed in three independent experiments.
# [3] = Cytotoxicity assay (resazurin); assay type: cell-based; details: human, HEK293 cells, mean n = 2
# E. coli ATCC 25922 [4] = assay: Erythromycin potentiation against E. coli; assay type: cell-based, Escherichia coli; details: erythromycin at 2 µg/mL (2.7 µM); for Erythro/Ec: concentration required to restore erythromycin activity (combination MIC): mean n = 3
# Excerpt: (§3) These measurements were independently repeated in triplicate.
# [5] = test system: K. pneumoniae ATCC 700603; assay: MIC, broth microdilution (CO-ADD), K. pneumoniae; details: top dose 32 µg/mL
# human red blood cells [6] = assay: Hemolytic assay; assay type: cell-based; details: 10% hemolytic activity, mean n = 2
# Method in brief: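 Washed human erythrocytes (0.5 × 10^8 cells/mL in 0.9% NaCl) were incubated with compounds for 1 h at 37 °C. Haemoglobin release was read as supernatant OD405. HC10 and HC50 came from sigmoidal dose–response fits.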
# MRSA ATCC 43300 [7] = assay: MIC, broth microdilution (CO-ADD), MRSA; assay type: cell-based, methicillin-resistant S. aureus; details: Staphylococcus aureus; MRSA ATCC 43300; top dose 32 µg/mL; read-out: MIC MRSA
# P. aeruginosa ATCC 27853 [8] = assay: MIC, broth dilution, P. aeruginosa; assay type: cell-based, Pseudomonas aeruginosa; details: Pseudomonas aeruginosa, ATCC27853
# A. baumannii ATCC 19606 [9] = assay: MIC, broth microdilution (CO-ADD), A. baumannii; assay type: cell-based, Acinetobacter baumannii; details: Acinetobacter baumannii, ATCC19606, top dose 32 µg/mL
# [10] = test system: C. neoformans ATCC 208821; assay: Antifungal MIC (CO-ADD), C. neoformans; assay type: cell-based; details: Cryptococcus neoformans, ATCC208821, top dose 32 µg/mL
# Method in brief: as §1
# S. aureus ATCC 25923 [11] = assay: ATP efflux (membrane disruption), S. aureus; assay type: cell-based, Staphylococcus aureus; details: S. aureus ATCC 25923, single dose 100 µg/mL, relative to squalamine
# Method: as §2
# S. aureus ATCC 25923 [12] = assay: MIC, broth dilution, S. aureus; assay type: cell-based, Staphylococcus aureus
# S. aureus ATCC 25923 [13] = assay: Real-time growth curves, S. aureus; assay type: cell-based, Staphylococcus aureus; details: for Concentration at which bacterial growth resumed after 2 h: S. aureus ATCC 25923, real-time growth
# Method: The solutions of the compound at the concentrations of 2, 4, and 16 µg/mL were tested each in triplicate against S. aureus ATCC 25923. Typically, in a 96-well plate were placed 10 µL of 40, 80, and 320 µg/mL stock solutions of compound, as well as 190 µL of 5 × 10^5 CFU/mL of the selected bacterial suspension in brain heart infusion (BHI) broth. Positive controls containing only 200 µL of 5 × 10^5 CFU/mL of the bacterial suspension in BHI and negative controls containing only 200 µL of BHI broth were added. The plate was incubated at 37 °C in a TECAN Spark Reader (Roche Diagnostic, Meylan, France) and the real-time bacterial growth was followed by OD590 nm measurements every 20 min for 18 h.
# P. aeruginosa PAO1 [14] = assay: Nitrocefin hydrolysis assay (outer membrane permeabilization); assay type: cell-based, Pseudomonas aeruginosa; details: P. aeruginosa PAO1, top dose 128 µg/mL
# Method: Outer membrane permeabilization was measured using nitrocefin as a chromogenic substrate of periplasmic β-lactamase. A total of 10 milliliters of MH broth were inoculated with 0.1 mL of an overnight culture of PAO1 bacteria and grown at 37 °C until the OD600 reached 0.5. The remaining steps were performed at room temperature. The cells were recovered by centrifugation (4000 rpm for 20 min) and washed once in 20 mM potassium phosphate buffer (pH 7.2) containing MgCl2 (1 mM). After a second centrifugation, the pellet was resuspended and adjusted to OD600 of 0.5. Then, 50 µL of the desired compound was added to 100 µL of the cell suspension to obtain a final concentration varying from 3.9 µM to 250 µM. A total of 50 microliters of nitrocefin was then added to obtain a final concentration of 50 µg/mL. Nitrocefin hydrolysis was monitored spectrophotometrically by measuring the increase in absorbance at 490 nm. The assays were performed in 96-well plates using a M200 Pro Tecan (Tecan, Männedorf, Switzerland) spectrophotometer.
# P. aeruginosa PAO1 [15] = assay: Real-time growth curves, P. aeruginosa; assay type: cell-based, Pseudomonas aeruginosa
# P. aeruginosa ATCC 27853 [16] = assay: Doxycycline potentiation against P. aeruginosa; assay type: cell-based, Pseudomonas aeruginosa; details: doxycycline at 2 µg/mL (4.5 µM)
# Excerpt: as §3
# A. baumannii ATCC 19606 [17] = test system: A. baumannii ATCC 19606; set-up: method as in Cadelis et al. [13]; details: ref Cadelis et al. [13]; cited from earlier work
# P. aeruginosa ATCC 27853 [18] = details: cited from earlier work
# [19] = test system: C. neoformans ATCC 208821; set-up: method as in Cadelis et al. [13]; details: ref Cadelis et al. [13]; cited from earlier work
# [20] = test system: HEK293 human embryonic kidney cells; set-up: method as in Cadelis et al. [13]; details: ref Cadelis et al. [13], read-out: Cytotoxicity IC50; cited from earlier work
# human red blood cells [21] = details: cited from earlier work
# P. aeruginosa ATCC 27853 [22] = details: cited from earlier work; remark: listed apart in the source
# C. albicans ATCC 90028 [23] = test system: C. albicans ATCC 90028; set-up: method as in Cadelis et al. [13]; details: ref Cadelis et al. [13]; cited from earlier work
# E. coli ATCC 25922 [24] = test system: E. coli ATCC 25922; set-up: method as in Cadelis et al. [13]; details: ref Cadelis et al. [13]; cited from earlier work
# MRSA ATCC 43300 [25] = test system: MRSA ATCC 43300; set-up: method as in Cadelis et al. [13]; details: ref Cadelis et al. [13]; cited from earlier work
# S. aureus ATCC 25923 [26] = details: ref Cadelis et al. [13]; cited from earlier work
# [27] = test system: K. pneumoniae ATCC 700603; set-up: method as in Cadelis et al. [13]; details: ref Cadelis et al. [13]; cited from earlier work
structure (smiles),measurement,setting,value
O=C(NCCCNCCCCCCNCCCNC(=O)c1c[nH]c2ccc(Br)cc12)c1c[nH]c2ccc(Br)cc12 [Compound 13b],MIC,E. coli ATCC 25922 [1],6.92 µM
same,MIC,C. albicans ATCC 90028 [2],> 35 µM
same,ATP release (membrane disruption),MRSA,more potent of the two compounds
same,IC50 at 20 h,[3],> 35 µM
same,Erythro/Ec fold-change (intrinsic MIC / combination MIC),E. coli ATCC 25922 [4]; E. coli,1 fold
same,Erythro/Ec: concentration required to restore erythromycin activity (combination MIC),E. coli ATCC 25922 [4],6.92 µM
same,MIC Kp,[5],>35 µM
same,Hemolysis HC10,human red blood cells [6],>35 µM
same,MIC,MRSA ATCC 43300 [7],≤ 0.28 µM
same,MIC,"P. aeruginosa ATCC 27853 [8]; P. aeruginosa ATCC 27853, 18 h, read-out: MIC Pa",71 µM
same,MIC,P. aeruginosa ATCC 27853 [8]; read-out: MIC P. aeruginosa (microdilution),64 µg/mL
same,MIC,A. baumannii ATCC 19606 [9],≤ 0.28 µM
same,MIC,[10],≤ 0.28 µM
same,ATP release (membrane disruption),S. aureus ATCC 25923 [11],more potent of the two compounds
same,MIC,"S. aureus ATCC 25923 [12]; S. aureus ATCC 25923, 18 h, read-out: MIC Sa",2.2 µM
same,MIC,"S. aureus ATCC 25923 [12]; Staphylococcus aureus, ATCC25923, S. aureus ATCC 25923, 18 h, read-out: MIC Sa",2.2 µM
same,MIC,"S. aureus ATCC 25923 [12]; Staphylococcus aureus, ATCC25923, read-out: MIC S. aureus (microdilution)",2 µg/mL
same,Concentrations giving complete inhibition in real-time growth curves,"S. aureus ATCC 25923 [13]; S. aureus ATCC 25923, 18 h",32 to 2 μg/mL and 35.5 to 2.2 μM
same,Concentration at which bacterial growth resumed after 2 h,S. aureus ATCC 25923 [13],1 μg/mL and 1.1 μM
same,Outer membrane disruption (nitrocefin hydrolysis),P. aeruginosa PAO1 [14],able to disrupt the outer membrane only at the top dose
same,Concentration at which bacterial growth resumed after 4 h,P. aeruginosa PAO1 [15],35.5 μM and 32 μg/mL
same,Dox/Pa fold-change (intrinsic MIC / combination MIC),P. aeruginosa ATCC 27853 [16]; P. aeruginosa ATCC 27853,21 fold
same,Dox/Pa: concentration required to restore doxycycline activity (combination MIC),"P. aeruginosa ATCC 27853 [16]; P. aeruginosa ATCC 27853, mean n = 3",3.46 µM
"O=C(NCCCNCCCCNCCCNC(=O)c1c[nH]c2ccc(Br)cc12)c1c[nH]c2ccc(Br)cc12 [Compound 3, α,ω-di-(5-bromoindole-3-carboxamido)spermine]",MIC Ab,A. baumannii ATCC 19606 [17],>50 ^i µM
same,MIC Pa,P. aeruginosa ATCC 27853 [18]; ref Cadelis et al. [13],200 ^i µM
same,Erythro/Ec: concentration required to restore erythromycin activity (combination MIC),E. coli ATCC 25922 [4],100 µM
same,MIC Cn,[19],12.4 ^i µM
same,IC50,[20],> 50 µM
same,Hemolysis HC10,human red blood cells [21],>50 ^c µM
same,Dox/Pa: concentration required to restore doxycycline activity (combination MIC),"P. aeruginosa ATCC 27853 [22]; doxycycline at 2 µg/mL (4.5 µM), P. aeruginosa ATCC 27853, ref Cadelis et al. [13]",3.125 µM
same,Dox/Pa fold-change (intrinsic MIC / combination MIC),"P. aeruginosa ATCC 27853 [22]; doxycycline at 2 µg/mL, P. aeruginosa ATCC 27853, ref Cadelis et al. [13]",64 fold
same,MIC Ca,C. albicans ATCC 90028 [23],49.5 ^i µM
same,MIC Ec,E. coli ATCC 25922 [24],200 ^i µM
same,MIC MRSA,MRSA ATCC 43300 [25],12.4 ^i µM
same,MIC Sa,S. aureus ATCC 25923 [26],4.8 ^i µM
same,MIC Kp,[27],>50 ^i µM
"O=C(Cc1c[nH]c2ccc(Br)cc12)NCCCNCCCCCCCNCCCNC(=O)Cc1c[nH]c2ccc(Br)cc12 [Compound 19, reference compound]",MIC P. aeruginosa,P. aeruginosa ATCC 27853 [18],100 μg/mL and 106 μM
same,ATP release (membrane disruption),MRSA,noticeably less active than the positive control squalamine
same,Combined MIC with doxycycline against P. aeruginosa,P. aeruginosa ATCC 27853 [22]; doxycycline potentiation,6.6 µM
same,Fold enhancement with doxycycline against P. aeruginosa,P. aeruginosa ATCC 27853 [22]; doxycycline potentiation,18 fold
same,ATP release (membrane disruption),S. aureus ATCC 25923 [11],noticeably less active than the positive control squalamine
same,Concentration at which bacterial growth resumed after 2 h,S. aureus ATCC 25923 [13],8.5 μM and 8 μg/mL
same,Outer membrane disruption (nitrocefin hydrolysis),P. aeruginosa PAO1 [14],inactive at all test doses
same,Concentration at which bacterial growth resumed after 4 h,P. aeruginosa PAO1 [15],128 μg/mL and 135.5 μM
